Experimental findings from patent US7595398B2, “N-(5-membered aromatic ring)-amido anti-viral compounds” (SmithKline Beecham Corporation, priority 2005, dated 2009) are described below.

Structures are written as SMILES.

The test relates to HCV replicon I389luc-ubi-neo/NS3-3′/ET in ET (Huh-lucubineo-ET) cells; screening for HCV RNA dependent RNA polymerase. In words: Replicon Assay (luciferase, ET cell line Huh-lucubineo-ET). Format: cell-based. To be noted: Hepatitis C virus; inhibition of replication relative to no compound control; test concentration of 10 μM according to the fitted equation; luciferase 48-72 hours. Summed up:
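Huh-derived ET cells stably carrying an I389luc-ubi-neo/NS3-3′/ET HCV replicon with a luciferase-ubiquitin-neomycin phosphotransferase fusion and adaptive NS3-5B mutations were cultured in DMEM with 10% fetal calf serum and 250 μg/mL G418. Cells were seeded at 0.5-1.0×10^4 cells/well in 96 well plates and given compound after 24 hrs. Luciferase was read 48-72 hours later with Bright-Glo reagents, and replication inhibition was expressed relative to untreated controls.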
(In general: A replicon is a self-replicating genome or part of one, used to study replication in cells.)
Broadly, the inhibition is the drop in the measured response relative to a control, in per cent. High values mean a strong effect, low ones a weak effect. Consider `CC(C)(C)OC(=O)N1CCC(NC(=O)c2ccc(-c3csc(NC(=O)[C@@H]4CCCN4C(=O)OCc4ccccc4)n3)cc2)CC1` [Compound 5336, 4-(4-{2-[(1-Benzyloxycarbonyl-pyrrolidine-2-carbonyl)-amino]-thiazol-4-yl}-benzoylamino)-piperidine-1-carboxylic acid tert-butyl ester], for which the inhibition at 10 µM turned out to be 96.3%.
Molecule `O=C(NC1CNC1)c1ccc(-c2csc(NC(=O)[C@@H]3CCCN3C(=O)OCc3ccccc3)n2)cc1` [Compound 5337, 2-{4-[4-(Azetidin-3-ylcarbamoyl)-phenyl]-thiazol-2-ylcarbamoyl}-pyrrolidine-1-carboxylic acid benzyl ester] came in with an inhibition at 10 µM of 100%.
The value for `O=C(Nc1nc(-c2cccnc2)cs1)[C@@H]1CCCN1C(=O)OCc1ccccc1` [Compound 5338, 2-(4-Pyridin-3-yl-thiazol-2-ylcarbamoyl)-pyrrolidine-1-carboxylic acid benzyl ester] was 75.2%.
To `O=C(NCCN1CCOCC1)c1ccc(-c2csc(NC(=O)C3CCCN3C(=O)OCc3ccccc3)n2)cc1` (centres unmarked) [Compound 5339, 2-{4-[4-(2-Morpholin-4-yl-ethylcarbamoyl)-phenyl]-thiazol-2-ylcarbamoyl}-pyrrolidine-1-carboxylic acid benzyl ester] belongs 100%.
The value for `O=C(NC1CC1)c1ccc(-c2csc(NC(=O)[C@@H]3CCCN3C(=O)NCc3ccccc3)n2)cc1` [Compound 5342, Pyrrolidine-1,2-dicarboxylic acid 1-benzylamide 2-{[4-(4-cyclopropylcarbamoyl-phenyl)-thiazol-2-yl]-amide}] was 95.2%; that for `O=C(NC1CCCNC1)c1ccc(-c2csc(NC(=O)C3CCCN3C(=O)OCc3ccccc3)n2)cc1` (centres unmarked) [Compound 5343, 2-{4-[4-(Piperidin-3-ylcarbamoyl)-phenyl]-thiazol-2-ylcarbamoyl}-pyrrolidine-1-carboxylic acid benzyl ester] was 100%.
Regarding `O=C(Nc1nc(-c2ccco2)cs1)[C@@H]1CCCN1C(=O)OCc1ccccc1` [Compound 5347, 2-(4-Furan-2-yl-thiazol-2-ylcarbamoyl)-pyrrolidine-1-carboxylic acid benzyl ester], the inhibition at 10 µM is 94.7%.
To `O=C(NC1CC1)c1ccc(-c2csc(NC(=O)[C@H]3CCCN3C(=O)OCc3ccccc3)n2)cc1` [Compound 5349, 2-[4-(4-Cyclopropylcarbamoyl-phenyl)-thiazol-2-ylcarbamoyl]-pyrrolidine-1-carboxylic acid benzyl ester] belongs 28.6%.
The value for `O=C(NC1CC1)c1ccc(-c2csc(NC(=O)[C@@H]3SCCN3C(=O)OCc3ccccc3)n2)cc1` [Compound 5350, 2-[4-(4-Cyclopropylcarbamoyl-phenyl)-thiazol-2-ylcarbamoyl]-thiazolidine-3-carboxylic acid benzyl ester] was 100%.
Turning to `O=C(NC1CC1)c1ccc(-c2csc(NC(=O)[C@@H]3CCCN3C(=O)OCc3ccccc3)n2)o1` [Compound 5351, 2-[4-(5-Cyclopropylcarbamoyl-furan-2-yl)-thiazol-2-ylcarbamoyl]-pyrrolidine-1-carboxylic acid benzyl ester], at 10 µM the inhibition was 22.3%.
Regarding `O=C(NC1CC1)c1ccc(-c2cnc(NC(=O)[C@@H]3CCCN3C(=O)OCc3ccccc3)s2)cc1` [Compound 5352, 2-[5-(4-Cyclopropylcarbamoyl-phenyl)-thiazol-2-ylcarbamoyl]-pyrrolidine-1-carboxylic acid benzyl ester], the inhibition at 10 µM came to 7.07%.
The value for `O=C(O)c1ccc(-c2cnc(NC(=O)[C@@H]3CCCN3C(=O)OCc3ccccc3)s2)cc1` [Compound 5353, 2-[5-(4-Carboxy-phenyl)-thiazol-2-ylcarbamoyl]-pyrrolidine-1-carboxylic acid benzyl ester] was 50.2%.
In the case of `O=C(Nc1nc(-c2ccc(S(=O)(=O)NC3CCCC3)cc2)cs1)C1CCCN1C(=O)OCc1ccccc1` (centres unmarked) [Compound 5354, 2-[4-(4-Cyclopentylsulfamoyl-phenyl)-thiazol-2-ylcarbamoyl]-pyrrolidine-1-carboxylic acid benzyl ester], 10 µM produced 87.5% inhibition.
The value for `O=C(NC1CC1)c1ccc(-c2csc(NC(=O)[C@@H]3CCCN3C(=O)OCc3ccccc3)n2)nc1` [Compound 5355, 2-[4-(5-Cyclopropylcarbamoyl-pyridin-2-yl)-thiazol-2-ylcarbamoyl]-pyrrolidine-1-carboxylic acid benzyl ester] was 99.9%; that for `O=C(NC1CCNCC1)c1ccc(-c2csc(NC(=O)C3CCCN3C(=O)OCc3ccccc3)n2)cc1` (centres unmarked) [Compound 5356, 2-{4-[4-(Piperidin-4-ylcarbamoyl)-phenyl]-thiazol-2-ylcarbamoyl}-pyrrolidine-1-carboxylic acid benzyl ester] was 100%.
The value for `O=C(NC1CC1)c1ccc(-c2csc(NC(=O)C3CCCN3C(=O)CCc3ccccc3)n2)cc1` (centres unmarked) [Compound 5358, 1-(3-Phenyl-propionyl)-pyrrolidine-2-carboxylic acid [4-(4-cyclopropylcarbamoyl-phenyl)-thiazol-2-yl]-amide] was 84.8%; that for `CC(C)(C)c1csc(NC(=O)[C@@H]2CCCN2C(=O)OCc2ccccc2)n1` [Compound 5360, 2-(4-tert-Butyl-thiazol-2-ylcarbamoyl)-pyrrolidine-1-carboxylic acid benzyl ester] was 54%; that for `O=C(NC1CC1)c1ccc(-c2csc(NC(=O)[C@@H]3CCCN3C(=O)OCc3ccc(F)cc3)n2)cc1` [Compound 5361, 2-[4-(4-Cyclopropylcarbamoyl-phenyl)-thiazol-2-ylcarbamoyl]-pyrrolidine-1-carboxylic acid 4-fluoro-benzyl ester] was 98.4%.
The value for `COC(=O)c1sc(NC(=O)[C@@H]2CCCN2C(=O)OCc2ccccc2)nc1-c1ccc(C(=O)NC2CC2)cc1` [Compound 5362, 2-[(1-Benzyloxycarbonyl-pyrrolidine-2-carbonyl)-amino]-4-(4-cyclopropylcarbamoyl-phenyl)-thiazole-5-carboxylic acid methyl ester] was 98.7%.
In turn, `O=C(NC1CCCC1)c1cccc(-c2cnc(NC(=O)[C@@H]3CCCN3C(=O)OCc3ccccc3)s2)c1` [Compound 5363, 2-[5-(3-Cyclopentylcarbamoyl-phenyl)-thiazol-2-ylcarbamoyl]-pyrrolidine-1-carboxylic acid benzyl ester] had an inhibition at 10 µM of 1.64%.
The value for `O=C(Nc1nc(-c2ccc(C(=O)N3CCOCC3)cc2)cs1)C1CCCN1C(=O)OCc1ccccc1` (centres unmarked) [Compound 5364, 2-{4-[4-(Morpholine-4-carbonyl)-phenyl]-thiazol-2-ylcarbamoyl}-pyrrolidine-1-carboxylic acid benzyl ester] was 4.49%; that for `O=C(Nc1ccc(-c2csc(NC(=O)[C@@H]3CCC(=O)N3C(=O)OCc3ccccc3)n2)cc1)C1CC1` [Compound 5366, 2-{4-[4-(Cyclopropanecarbonyl-amino)-phenyl]-thiazol-2-ylcarbamoyl}-5-oxo-pyrrolidine-1-carboxylic acid benzyl ester] was 99.3%; that for `O=C(NC1CC1)c1ccc(-c2csc(NC(=O)[C@@H]3CCCN3C(=O)c3ccccc3)n2)cc1` [Compound 5367, 1-Benzoyl-pyrrolidine-2-carboxylic acid [4-(4-cyclopropylcarbamoyl-phenyl)-thiazol-2-yl]-amide] was 97.3%.
